IC50, IC90 and Ki data for 17 compounds are collected here from US20050176773A1, “Antiproliferative 2-(heteroaryl)-aminothiazole compounds and pharmaceutical compositions, and method for their use” (AGOURON PHARMACEUTICALS, INC., priority 2003, published 2005).

One assay relates to HCT-116 cells. Description: Inhibition of cell growth, MTT tetrazolium salt assay. In kind it is cell-based. The following applies: Homo sapiens, 144 h, four to six days incubation; for IC50: first value of the cell, read-out: HCT116 IC50; for IC90: second value of the cell, 90% inhibition of growth, read-out: HCT116 IC90. The procedure:
Inhibition of Cell Growth: Assessment of Cytotoxicity:
Inhibition of cell growth was measured using the tetrazolium salt assay, which is based on the ability of viable cells to reduce 3-(4,5-dimethylthiazol-2-yl)-2,5-[2H]-diphenyltetrazolium bromide (MTT) to formazan (Mosmann, T. J. Immunol. Methods 1983, 65, 55-63). The water-insoluble purple formazan product was then detected spectrophotometrically. HCT-116 cells were grown in 96-well plates. Cells were plated in the appropriate medium at a volume of 135 μl/well in either McCoy's 5A Medium. Plates were incubated for 4 hours before addition of inhibitor compounds. Different concentrations of inhibitor compounds were added in 0.5% (v/v) dimethylsulfoxide (15 μL/well), and cells were incubated at 37° C. (5% CO2) for four to six days (depending on cell type). At the end of the incubation, MTT was added to a final concentration of 0.2 mg/mL, and cells were incubated for 4 hours more at 37° C. After centrifugation of the plates and removal of medium, the absorbance of the formazan (solubilized in dimethylsulfoxide) was measured at 540 nm. The concentration of inhibitor compound causing 50% (IC50) or 90% (IC90) inhibition of growth was determined from the linear portion of a semi-log plot of inhibitor concentration versus percentage inhibition. All results were compared to control cells treated only with 0.5% (v/v) dimethylsulfoxide.

The target of assay [1] is T1, human CDK4 / truncated (1-264) cyclin D3 complex (Homo sapiens, UniProt P11802).
T1 construct: made in house; host or cells: insect cells (baculovirus co-infection)
Description: Inhibition of CDK4/Cyclin D retinoblastoma kinase activity. It counts as biochemical. The following applies: Rb fragment substrate, enzyme complex 5 nM. The procedure:
Inhibition of CDK4/Cyclin D Retinoblastoma Kinase Activity:
A complex of human CDK4 and genetically truncated (1-264) cyclin D3 was purified using traditional biochemical chromatographic techniques from insect cells that had been co-infected with the corresponding baculovirus expression vectors (see e.g., Meijer, L.; Kim, S.-H. In Methods Enzymol. 1997, 283, 113-128). The enzyme complex (5 nM) was assayed with 0.3-0.5 μg of purified recombinant retinoblastoma protein fragment (Rb) as a substrate. The engineered Rb fragment (residues 386-928 of the native retinoblastoma protein; 62.3 kDa) contains the majority of the phosphorylation sites found in the native 106-kDa protein, as well as a tag of six histidine residues for ease of purification. Phosphorylated Rb substrate was captured by microfiltration on a nitrocellulose membrane and quantified using a phosphorimager as described above. For measurement of tight-binding inhibitors, the assay duration was extended to 60 minutes, during which the time dependence of product formation was linear and initial rate conditions were met.

The target in assay [2] is T2, CDK2 / proteolyzed cyclin A complex (Homo sapiens, UniProt P24941).
T2 construct: made in house; host or cells: CDK2: insect cells (baculovirus); cyclin A: E. coli, then limited proteolysis
Description: Inhibition of CDK2/Cyclin A retinoblastoma kinase activity. It counts as biochemical. The following applies: Rb fragment substrate, CDK2 at 10 nM or 19 nM. The text has this:
Inhibition of CDK2/Cyclin A Retinoblastoma Kinase Activity:
CDK2 was purified using published methodology (Rosenblatt, J.; De Bondt, H.; Jancarik, J.; Morgan, D. O.; Kim, S. H. J. Mol. Biol. 1993, 230, 1317-1319) from insect cells that had been infected with a baculovirus expression vector. Cyclin A was purified from E. coli cells expressing full-length recombinant cyclin A, and a truncated cyclin A construct was generated by limited proteolysis and purified as described previously (Jeffrey, P. D.; Russo, A. A.; Polyak, K.; Gibbs, E.; Hurwitz, J.; Massague, J.; Pavletich, N. P. Nature 1995, 376, 313-320.). A complex of CDK2 and proteolyzed cyclin A was prepared and purified by gel filtration. The substrate for this assay was the same Rb substrate fragment used for the CDK4 assays, and the methodology of the CDK2/delta cyclin A and the CDK4/delta cyclin D3 assays was essentially the same, except that CDK2 was present at 10 nM or 19 nM. The duration of the assay was 60 or 75 minutes, during which the time dependence of product formation was linear and initial rate conditions were met.

T1 sequence (P11802 whole entry, the tested form may be a part): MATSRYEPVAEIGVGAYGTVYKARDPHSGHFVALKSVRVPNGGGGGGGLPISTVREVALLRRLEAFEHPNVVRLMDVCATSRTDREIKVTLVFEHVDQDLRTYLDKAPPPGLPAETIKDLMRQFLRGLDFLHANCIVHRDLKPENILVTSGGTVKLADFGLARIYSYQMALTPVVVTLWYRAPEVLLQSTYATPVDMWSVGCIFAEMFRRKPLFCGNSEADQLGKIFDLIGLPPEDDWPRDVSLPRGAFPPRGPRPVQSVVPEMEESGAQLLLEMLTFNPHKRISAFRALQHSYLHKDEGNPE
T1 sequence (P30281 1-264 partner limits assumed): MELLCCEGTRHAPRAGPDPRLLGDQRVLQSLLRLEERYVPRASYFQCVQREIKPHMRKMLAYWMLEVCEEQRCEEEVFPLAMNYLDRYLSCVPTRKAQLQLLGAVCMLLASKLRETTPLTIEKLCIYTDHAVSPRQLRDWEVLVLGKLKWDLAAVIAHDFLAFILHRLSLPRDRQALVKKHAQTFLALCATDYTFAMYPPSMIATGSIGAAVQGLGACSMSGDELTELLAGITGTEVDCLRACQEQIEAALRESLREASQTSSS

The term IC50 denotes the concentration at which inhibition is half-maximal. Usually IC90 stands for the concentration needed for an effect of 90%. The Ki is the dissociation constant of the complex between target and ligand, obtained from inhibition or displacement. Higher therefore signals lower affinity. Turning to `Nc1nc(Nc2ccc(C(=O)NCCN3CCCCC3)cn2)sc1C(=O)c1c(F)cccc1F` [Example 1F, 6-[4-Amino-5-(2,6-difluoro-benzoyl)-thiazol-2-ylamino]-N-(2-piperidin-1-yl-ethyl)-nicotinamide], in the assay with HCT-116 cells, the IC50 amounted to 17 nM and the IC90 is 40 nM. The inhibition constant Ki in assay [1] was 4.3 nM. Moreover, the inhibition constant (Ki) in assay [2] worked out at 18 nM.
Take `CCN1CCCC1CNC(=O)c1ccc(Nc2nc(N)c(C(=O)c3c(F)cccc3F)s2)nc1` (centres unmarked) [Example 1H, 6-[4-Amino-5-(2,6-difluoro-benzoyl)-thiazol-2-ylamino]-N-(1-ethyl-pyrrolidin-2-ylmethyl)-nicotinamide]: in the assay on HCT-116 cells, the 50% inhibitory concentration (IC50) is 32 nM and the 90% effect concentration (IC90) turned out to be 60 nM. Moreover, in assay [1], the Ki stood at 7.1 nM. In addition, the Ki in assay [2] amounted to 43 nM.
For `CN1CCN(c2ccc(Nc3nc(N)c(C(=O)c4c(F)cccc4F)s3)nc2)CC1` [Example 2A, {4-Amino-2-[5-(4-methyl-piperazin-1-yl)-pyridin-2-ylamino]-thiazol-5-yl}-(2,6-difluoro-phenyl)-methanone], in the assay with HCT-116 cells, the half-inhibitory concentration (IC50) was 70 nM and the IC90 amounted to 180 nM. Moreover, in assay [1], the Ki is 1.1 nM. Moreover, in assay [2], the Ki came out at 32 nM.
In the case of `CNCCNC(=O)c1ccc(Nc2nc(N)c(C(=O)c3c(F)cccc3F)s2)nc1` [Example 3A], the IC50 with HCT-116 cells is 210 nM. Further, the IC90 with HCT-116 cells came to 700 nM. Moreover, the inhibition constant Ki in assay [1] turned out to be 3.3 nM; in assay [2] it was 21 nM.
The corresponding values for `CN1CCC[C@H]1CNC(=O)c1ccc(Nc2nc(N)c(C(=O)c3c(F)cccc3F)s2)cn1` [Example C1A, 5-[4-Amino-5-(2,6-difluoro-benzoyl)-thiazol-2-ylamino]-pyridine-2-carboxylic acid (1-methyl-pyrrolidin-2S-ylmethyl)-amide, reference compound] are 230 nM, 650 nM, 37 nM and 320 nM.
Take `CN1CCC[C@H]1CNC(=O)c1ccc(Nc2nc(N)c(C(=O)c3c(F)cccc3F)s2)nc1` [Example 1A]: in the assay with HCT-116 cells, the IC50 is 7 nM and the IC90 is 170 nM. This compound also gave an inhibitory constant (Ki) in assay [1] of 0.77 nM. In assay [2], this compound gave an inhibitory constant (Ki) of 7.3 nM.
The corresponding values for `CN(C)CCNC(=O)c1ccc(Nc2nc(N)c(C(=O)c3c(F)cccc3F)s2)nc1` [Example 1K, 6-[4-Amino-5-(2,6-difluoro-benzoyl)-thiazol-2-ylamino]-N-(2-dimethylamino-ethyl)-nicotinamide] are 8.8 nM, 21 nM, 1.4 nM and 9.8 nM.
As for `Nc1nc(Nc2ccc(C(=O)NCCN3CCCC3)cn2)sc1C(=O)c1c(F)cccc1F` [Example 1J, 6-[4-Amino-5-(2,6-difluoro-benzoyl)-thiazol-2-ylamino]-N-(2-pyrrolidin-1-yl-ethyl)-nicotinamide], the half-inhibitory concentration (IC50) with HCT-116 cells was determined as 17 nM. Moreover, in the assay on HCT-116 cells, the 90% effect concentration (IC90) stood at 50 nM. Also, the Ki in assay [1] was found to be 2.2 nM; in assay [2], 11 nM.
Turning to `Nc1nc(Nc2ccc(C(=O)NCc3ccccn3)cn2)sc1C(=O)c1c(F)cccc1F` [Example 1C, 6-[4-Amino-5-(2,6-difluoro-benzoyl)-thiazol-2-ylamino]-N-pyridin-2-ylmethyl-nicotinamide], the IC50 in the assay on HCT-116 cells is 79 nM. In addition, in the assay with HCT-116 cells, the IC90 turned out to be 210 nM. In addition, the inhibition constant (Ki) in assay [1] is 12 nM; in assay [2], 7.2 nM.
`Nc1nc(Nc2ccc(C(=O)NCc3cccnc3)cn2)sc1C(=O)c1c(F)cccc1F` [Example 1D, 6-[4-Amino-5-(2,6-difluoro-benzoyl)-thiazol-2-ylamino]-N-pyridin-3-ylmethyl-nicotinamide]: in the assay with HCT-116 cells, the half-maximal inhibitory concentration (IC50) stood at 410 nM and the 90% effect concentration (IC90) was greater than 5000 nM. In addition, the Ki in assay [1] was 6.6 nM. Moreover, in assay [2], the inhibitory constant (Ki) was 5.7 nM.
In the case of `C[C@H](CN(C)C)NC(=O)c1ccc(Nc2nc(N)c(C(=O)c3c(F)cccc3F)s2)cn1` [Example C1B, 5-[4-Amino-5-(2,6-difluoro-benzoyl)-thiazol-2-ylamino]-pyridine-2-carboxylic Acid (2-Dimethylamino-1R-methyl-ethyl)-amide, reference compound], in the assay on HCT-116 cells, the half-inhibitory concentration (IC50) was 120 nM and the IC90 was found to be 280 nM. The Ki in assay [1] is 120 nM. The compound further yielded an inhibitory constant (Ki) in assay [2] of 400 nM.
`CNC(C)(C)CNC(=O)c1ccc(Nc2nc(N)c(C(=O)c3c(F)cccc3F)s2)nc1` [Example 1M]: the concentration for half-maximal inhibition (IC50) with HCT-116 cells came to 70 nM. Also, the IC90 with HCT-116 cells is 250 nM. The values for the Ki in assay [1] and in assay [2] were 2.3 nM and 35 nM, respectively.
Regarding `C[C@H](CN(C)C)NC(=O)c1ccc(Nc2nc(N)c(C(=O)c3c(F)cccc3F)s2)nc1` [Example 1I, 6-[4-Amino-5-(2,6-difluoro-benzoyl)-thiazol-2-ylamino]-N-(2-dimethylamino-1R-methyl-ethyl)-nicotinamide], in the assay with HCT-116 cells, the half-inhibitory concentration (IC50) was found to be 2.6 nM and the 90% effect concentration (IC90) is 5.7 nM. Besides, the inhibition constant (Ki) in assay [1] was determined as 0.61 nM. Further, in assay [2], the Ki was 4.4 nM.
The corresponding values for `CN(C)C(C)(C)CNC(=O)c1ccc(Nc2nc(N)c(C(=O)c3c(F)cccc3F)s2)nc1` [Example 1L] are 2.5 nM, 8.5 nM, 1.3 nM and 8.6 nM.
As to `CN(C)C1(CNC(=O)c2ccc(Nc3nc(N)c(C(=O)c4c(F)cccc4F)s3)nc2)CCC1` [Example 1B, 6-[4-Amino-5-(2,6-difluoro-benzoyl)-thiazol-2-ylamino]-N-(1-dimethylaminocyclobutylmethyl)-nicotinamide], in the assay with HCT-116 cells, the IC50 turned out to be 5.8 nM and the 90% effect concentration (IC90) came to 20 nM. In assay [1], this compound registered an inhibitory constant (Ki) of 2.7 nM. Further, the Ki in assay [2] was determined as 39 nM.
For `Nc1nc(Nc2ccc(C(=O)Nc3ccccn3)cn2)sc1C(=O)c1c(F)cccc1F` [Example 1G, 6-[4-Amino-5-(2,6-difluoro-benzoyl)-thiazol-2-ylamino]-N-pyridin-2-yl-nicotinamide], in the assay on HCT-116 cells, the IC50 is 170 nM and the IC90 worked out at 36000 nM. In assay [1], this compound displayed a Ki of 35 nM. This compound came in with a Ki in assay [2] of 18 nM.
On to `Nc1nc(Nc2ccc(C(=O)Nc3ccccc3)cn2)sc1C(=O)c1c(F)cccc1F` [Example 1E, 6-[4-Amino-5-(2,6-difluoro-benzoyl)-thiazol-2-ylamino]-N-phenyl-nicotinamide], for which, in the assay with HCT-116 cells, the IC50 is 180 nM and the IC90 stood at 400 nM. This compound came in with a Ki in assay [1] of 18 nM. In addition, the Ki in assay [2] was determined as 17 nM.
